# Patent US20060211698A1, “Bicyclic heteroaryl derivatives for treating viruses” (Genelabs, Inc., priority 2005, published 2006)
# Target: T1, HCV-NS5b (Hepatitis C virus genotype 1b, UniProt Q9WMX2)
# T1 construct: The cloned fragment was missing the C terminus 21 amino acid residues; (His)6 (C); made in house; host or cells: XL-1 cells (E. coli)
# Experiment: HCV-NS5b Enzyme Assay
# Format: biochemical
# Settings: 1 μM test compound; incorporation of [3H]-UTP, 37° C., 2 hours
# Summary of the method: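 The NS5B construct lacks its C-terminal 21 residues, carries a C-terminal His6 tag and was expressed in E. coli. [^3H]-UTP incorporation on a biotinylated HCV heteropolymeric template (10 ng/μL) with 10 μM each NTP, pH 7.5, 5 mM MgCl2 and 5% DMSO ran 2 h at 37° C and was read by SPA scintillation. IC50s came from 10-point 2-fold series starting at 50 or 2 μM.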
row,inhibition at 1 µM,Structure (SMILES)
1,96.4%,"Cc1cc(Cn2c(-c3ccc4nc(-c5sc(C)nc5C)ccc4c3)c(C3CCCCC3)c3ccc(C(=O)O)cc32)no1 [Compound 291, 3-Cyclohexyl-2-[2-(2,4-dimethyl-thiazol-5-yl)-quinolin-6-yl]-1-(5-methyl-isoxazol-3-ylmethyl)-1H-indole-6-carboxylic acid]"
2,98.7%,"Cc1nc(C)c(-c2ccc3cc(-c4c(C5CCCCC5)c5ccc(C(=O)O)cc5n4Cc4ccc(C(=O)O)cc4)ccc3n2)s1 [Compound 292, 1-(4-Carboxy-benzyl)-3-cyclohexyl-2-[2-(2,4-dimethyl-thiazol-5-yl)-quinolin-6-yl]-1H-indole-6-carboxylic acid]"
3,69.2%,"COc1cccc(Cn2c(-c3ccc4nc(-c5sc(C)nc5C)ccc4c3)c(C3CCCCC3)c3ccc(C(=O)O)cc32)c1 [Compound 293, 3-Cyclohexyl-2-[2-(2,4-dimethyl-thiazol-5-yl)-quinolin-6-yl]-1-(3-methoxy-benzyl)-1H-indole-6-carboxylic acid]"
4,101%,"O=C(O)c1ccc2c(C3CCCCC3)c(-c3ccc(-c4ccc5cc(Br)ccc5n4)cc3)n(CC(=O)N3CCOCC3)c2c1 [Compound 298, 2-[4-(6-Bromo-quinolin-2-yl)-phenyl]-3-cyclohexyl-1-(2-morpholin-4-yl-2-oxo-ethyl)-1H-indole-6-carboxylic acid]"
5,94.9%,"CN(C)c1ccc(-c2ccc(-c3c(C4CCCCC4)c4ccc(C(=O)O)cc4n3CC(=O)N3CCOCC3)cc2)cc1 [Compound 299, 3-Cyclohexyl-2-(4′-dimethylamino-biphenyl-4-yl)-1-(2-morpholin-4-yl-2-oxo-ethyl)-1H-indole-6-carboxylic acid]"
6,98.2%,"Cc1ccc(-c2ccc(-c3c(C4CCCCC4)c4ccc(C(=O)O)cc4n3CC(=O)N3CCOCC3)cc2)cc1 [Compound 300, 3-Cyclohexyl-2-(4′-methyl-biphenyl-4-yl)-1-(2-morpholin-4-yl-2-oxo-ethyl)-1H-indole-6-carboxylic acid]"
7,97%,"COc1ccc(-c2ccc(-c3c(C4CCCCC4)c4ccc(C(=O)O)cc4n3CC(=O)N3CCOCC3)cc2)cc1 [Compound 301, 3-Cyclohexyl-2-(4′-methoxy-biphenyl-4-yl)-1-(2-morpholin-4-yl-2-oxo-ethyl)-1H-indole-6-carboxylic acid]"
8,99.3%,"O=C(O)c1ccc2c(C3CCCCC3)c(-c3ccc(-c4ccccc4F)cc3)n(CC(=O)N3CCOCC3)c2c1 [Compound 302, 3-Cyclohexyl-2-(2′-fluoro-biphenyl-4-yl)-1-(2-morpholin-4-yl-2-oxo-ethyl)-1H-indole-6-carboxylic acid]"
9,98%,"O=C(O)c1ccc2c(C3CCCCC3)c(-c3ccc(-c4cccnc4F)cc3)n(CC(=O)N3CCOCC3)c2c1 [Compound 303, 3-Cyclohexyl-2-[4-(2-fluoro-pyridin-3-yl)-phenyl]-1-(2-morpholin-4-yl-2-oxo-ethyl)-1H-indole-6-carboxylic acid]"
10,98.5%,"COc1ncccc1-c1ccc(-c2c(C3CCCCC3)c3ccc(C(=O)O)cc3n2CC(=O)N2CCOCC2)cc1 [Compound 304, 3-Cyclohexyl-2-[4-(2-methoxy-pyridin-3-yl)-phenyl]-1-(2-morpholin-4-yl-2-oxo-ethyl)-1H-indole-6-carboxylic acid]"
11,97.8%,"N#Cc1cccc(-c2ccc(-c3c(C4CCCCC4)c4ccc(C(=O)O)cc4n3CC(=O)N3CCOCC3)cc2)c1 [Compound 306, 2-(3′-Cyano-biphenyl-4-yl)-3-cyclohexyl-1-(2-morpholin-4-yl-2-oxo-ethyl)-1H-indole-6-carboxylic acid]"
12,97.4%,"N#Cc1ccc(-c2ccc(-c3c(C4CCCCC4)c4ccc(C(=O)O)cc4n3CC(=O)N3CCOCC3)cc2)cc1 [Compound 307, 2-(4′-Cyano-biphenyl-4-yl)-3-cyclohexyl-1-(2-morpholin-4-yl-2-oxo-ethyl)-1H-indole-6-carboxylic acid]"
13,97.5%,"COc1ccncc1-c1ccc(-c2c(C3CCCCC3)c3ccc(C(=O)O)cc3n2CC(=O)O)cc1 [Compound 308, 1-Carboxymethyl-3-cyclohexyl-2-[4-(4-methoxy-pyridin-3-yl)-phenyl]-1H-indole-6-carboxylic acid]"
14,98.8%,"COc1cccc(-c2ccc(-c3c(C4CCCCC4)c4ccc(C(=O)O)cc4n3CC(=O)N3CCOCC3)cc2)c1 [Compound 309, 3-Cyclohexyl-2-(3′-methoxy-biphenyl-4-yl)-1-(2-morpholin-4-yl-2-oxo-ethyl)-1H-indole-6-carboxylic acid]"
15,99.6%,"O=C(O)c1ccc2c(C3CCCCC3)c(-c3ccc(-c4cccc([N+](=O)[O-])c4)cc3)n(CC(=O)N3CCOCC3)c2c1 [Compound 310, 3-Cyclohexyl-2-(3′-nitro-biphenyl-4-yl)-1-(2-morpholin-4-yl-2-oxo-ethyl)-1H-indole-6-carboxylic acid]"
16,102%,"COc1ccccc1-c1ccc(-c2c(C3CCCCC3)c3ccc(C(=O)O)cc3n2CC(=O)N2CCOCC2)cc1 [Compound 311, 3-Cyclohexyl-2-(2′-methoxy-biphenyl-4-yl)-1-(2-morpholin-4-yl-2-oxo-ethyl)-1H-indole-6-carboxylic acid]"
17,99.5%,"Cc1cccc(-c2ccc(-c3c(C4CCCCC4)c4ccc(C(=O)O)cc4n3CC(=O)N3CCOCC3)cc2)c1 [Compound 312, 3-Cyclohexyl-2-(3′-methyl-biphenyl-4-yl)-1-(2-morpholin-4-yl-2-oxo-ethyl)-1H-indole-6-carboxylic acid]"
18,99.6%,"Cc1ccccc1-c1ccc(-c2c(C3CCCCC3)c3ccc(C(=O)O)cc3n2CC(=O)N2CCOCC2)cc1 [Compound 313, 3-Cyclohexyl-2-(2′-methyl-biphenyl-4-yl)-1-(2-morpholin-4-yl-2-oxo-ethyl)-1H-indole-6-carboxylic acid]"
19,98%,"C=Cc1ccc(-c2ccc(-c3c(C4CCCCC4)c4ccc(C(=O)O)cc4n3CC(=O)N3CCOCC3)cc2)cc1 [Compound 314, 3-Cyclohexyl-1-(2-morpholin-4-yl-2-oxo-ethyl)-2-(4′-vinyl-biphenyl-4-yl)-1H-indole-6-carboxylic acid]"
20,95.8%,"Nc1cccc(-c2ccc(-c3c(C4CCCCC4)c4ccc(C(=O)O)cc4n3CC(=O)N3CCOCC3)cc2)c1 [Compound 315, 2-(3′-Amino-biphenyl-4-yl)-3-cyclohexyl-1-(2-morpholin-4-yl-2-oxo-ethyl)-1H-indole-6-carboxylic acid]"
21,101%,"Cc1ccc(-c2ccc(-c3c(C4CCCCC4)c4ccc(C(=O)O)cc4n3CC(=O)N3CCOCC3)cc2)s1 [Compound 316, 3-Cyclohexyl-2-[4-(5-methyl-thiophen-2-yl)-phenyl]-1-(2-morpholin-4-yl-2-oxo-ethyl)-1H-indole-6-carboxylic acid]"
22,96.7%,"Cc1noc(C)c1-c1ccc(-c2c(C3CCCCC3)c3ccc(C(=O)O)cc3n2CC(=O)N2CCOCC2)cc1 [Compound 317, 3-Cyclohexyl-2-[4-(3,5-dimethyl-isoxazol-4-yl)-phenyl]-1-(2-morpholin-4-yl-2-oxo-ethyl)-1H-indole-6-carboxylic acid]"
23,98.1%,"O=C(O)c1ccc2c(C3CCCCC3)c(-c3ccc(-c4ccc(Cl)s4)cc3)n(CC(=O)N3CCOCC3)c2c1 [Compound 318, 2-[4-(5-Chloro-thiophen-2-yl)-phenyl]-3-cyclohexyl-1-(2-morpholin-4-yl-2-oxo-ethyl)-1H-indole-6-carboxylic acid]"
24,74.3%,"Cc1nc(C)c(-c2ccc3cc(-c4c(C5CCCCC5)c5ccc(C(=O)O)cc5n4CC(=O)N4CCOCC4)cnc3n2)s1 [Compound 319, 3-Cyclohexyl-2-[7-(2,4-dimethyl-thiazol-5-yl)-[1,8]naphthyridin-3-yl]-1-(2-morpholin-4-yl-2-oxo-ethyl)-1H-indole-6-carboxylic acid]"
25,84.1%,"Cc1nc(C)c(-c2nc3ccc(-c4c(C5CCCCC5)c5ccc(C(=O)O)cc5n4CC(=O)N4CCOCC4)cc3[nH]2)s1 [Compound 320, 3-Cyclohexyl-2-[2-(2,4-dimethyl-thiazol-5-yl)-3H-benzoimidazol-5-yl]-1-(2-morpholin-4-yl-2-oxo-ethyl)-1H-indole-6-carboxylic acid]"
26,98.2%,"Cc1cccc(-c2ccc3cc(-c4c(C5CCCCC5)c5ccc(C(=O)O)cc5n4CC(=O)N4CCOCC4)ccc3c2)c1 [Compound 321, 3-Cyclohexyl-1-(2-morpholin-4-yl-2-oxo-ethyl)-2-(6-m-tolyl-naphthalen-2-yl)-1H-indole-6-carboxylic acid]"
27,95.1%,"O=C(O)c1ccc2c(C3CCCCC3)c(-c3ccc4cc(-c5ccccc5F)ccc4c3)n(CC(=O)N3CCOCC3)c2c1 [Compound 322, 3-Cyclohexyl-2-[6-(2-fluoro-phenyl)-naphthalen-2-yl]-1-(2-morpholin-4-yl-2-oxo-ethyl)-1H-indole-6-carboxylic acid]"
28,97.6%,"Cc1nc(C)c(C2CCc3cc(-c4c(C5CCCCC5)c5ccc(C(=O)O)cc5n4CC(=O)N4CCOCC4)ccc3N2)s1 (stereo not drawn) [Compound 323, 3-Cyclohexyl-2-[2-(2,4-dimethyl-thiazol-5-yl)-1,2,3,4-tetrahydro-quinolin-6-yl]-1-(2-morpholin-4-yl-2-oxo-ethyl)-1H-indole-6-carboxylic acid]"
29,93.6%,"O=C(O)c1ccc2c(C3CCCCC3)c(-c3ccc4nc(-c5ccncc5)ccc4c3)n(CC(=O)N3CCOCC3)c2c1 [Compound 325, 3-Cyclohexyl-1-(2-morpholin-4-yl-2-oxo-ethyl)-2-(2-pyridin-4-yl-quinolin-6-yl)-1H-indole-6-carboxylic acid]"
30,99.8%,"O=C(O)c1ccc2c(C3CCCCC3)c(-c3ccc(-c4ccc5ccccc5n4)cc3)n(CC(=O)N3CCOCC3)c2c1 [Compound 326, 3-Cyclohexyl-1-(2-morpholin-4-yl-2-oxo-ethyl)-2-(4-quinolin-2-yl-phenyl)-1H-indole-6-carboxylic acid]"
